# Assay results published in patent US9560989B2, “Method for determining the metabolic capacity of at least one enzyme” (HUMEDICS GMBH, priority 2011, dated 2017).
# Experiments:
# CYP450 1A2 [1] = molecular target: T1, CYP450 1A2 (Homo sapiens, UniProt P05177); assay: metabolic power of the liver determined by methacetin metabolism at different dosages; assay type: in vivo; design: metabolized to ^13CO2 and paracetamol in the liver cells by the enzyme CYP450 1A2; from tissue; host or cells: liver of the living individual (in vivo); conditions: FIG. 2
# T1 sequence (P05177 1-516): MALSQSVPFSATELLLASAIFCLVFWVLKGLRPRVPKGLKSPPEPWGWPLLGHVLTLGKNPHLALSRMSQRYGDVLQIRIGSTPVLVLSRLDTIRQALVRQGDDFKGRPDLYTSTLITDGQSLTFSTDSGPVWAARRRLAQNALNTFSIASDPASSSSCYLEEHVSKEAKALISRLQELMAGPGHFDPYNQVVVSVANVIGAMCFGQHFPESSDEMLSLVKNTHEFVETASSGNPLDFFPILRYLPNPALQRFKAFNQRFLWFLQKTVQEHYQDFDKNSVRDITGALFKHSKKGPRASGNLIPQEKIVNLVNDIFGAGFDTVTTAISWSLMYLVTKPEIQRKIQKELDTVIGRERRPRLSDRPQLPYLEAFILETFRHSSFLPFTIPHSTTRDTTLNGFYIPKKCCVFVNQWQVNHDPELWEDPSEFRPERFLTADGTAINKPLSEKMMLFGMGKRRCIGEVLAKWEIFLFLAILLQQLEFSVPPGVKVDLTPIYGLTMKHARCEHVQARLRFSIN
# Protocol: The metabolic power was determined according to the formulae indicated above for different methacetin metabolisms observed after methacetin administration in different dosages. Specifically, 1 mg ^13C-labeled methacetin per kg bodyweight, 2 mg/kg, 4 mg/kg and 8 mg/kg were administered.
# This non-linearity is expressed by the function L(n/M), wherein n denotes the number of substrate molecules, i.e. methacetin molecules, and M denotes the bodyweight in kg. This function L(n/M) forms part of the fitting curve represented in FIG. 2 by the interpolation curve between the single measurement points.
# CYP450 1A2 [2] = molecular target: T1, CYP450 1A2; conditions: in vivo
# Protocol: As substrate, ^13C-labeled methacetin at a dose of 2 mg per kilogram bodyweight of the individual was administered to the individual, wherein the release period was shorter than 60 seconds. In the body of the individual the ^13C-labeled methacetin was metabolized in the liver to paracetamol and ^13C-labeled CO2. The latter was detected as product in the air exhaled by the individual.
# 1 DOB here refers to a change of the ^13CO2-to-^12CO2-ratio by a thousandth above the natural ratio. The obtained measured values, illustrated in FIG. 1, are subsequently fitted with a suitable model function. […] From this model function—with a function equation familiar as such—different parameters can now be derived which specify the function. […]
# As methacetin is almost solely metabolized in the liver, with the specified metabolism dynamics it is possible to directly and immediately trace the metabolism of the administered substrate by the enzymes existing in the liver. […] Here, for instance the value of the maximum product concentration in the exhaled air Pmax allows a statement to be made about the number of the healthy liver cells and the liver volume which is thus available for metabolism; whereas the rise in the form of the time constant(s) of the model function, fitted to the measured values, allows statements to be made about the entrance velocity of the substrate into the liver cells. […]
compound,measurement,setting,value
COc1ccc(NC(C)=O)cc1 [13C-labeled methacetin],dependence of the measured signals on dosage,CYP450 1A2 [1]; 1 mg per kg body weight,linear dependence
same,dependence of the measured signals on dosage,CYP450 1A2 [1]; 2 mg/kg,linear dependence
same,deviation from the linear behaviour,CYP450 1A2 [1]; 4 mg/kg,10%
same,deviation from the linear behaviour,CYP450 1A2 [1]; 8 mg/kg,more than 20%
same,time point of half-maximum methacetine metabolism (t1/2),CYP450 1A2 [2],~1.5 min
same,time point of maximum methacetine metabolism (tmax),CYP450 1A2 [2],~6.5 min
